In patent US20100261711A1, “SELECTIVE ANTICONVULSANT AGENTS AND THEIR USES” (WiSys Technology Foundation, priority 2009, published 2010):
Where “and” joins values, the source holds several entries; their conditions need not be identical. Equal entries are not always repeated. Entries after “also recorded” stand apart in the source; their conditions may differ.

Assays:
[1] = Plasma levels by LC-MS/MS (tolerance study); assay type: in vivo, Sprague Dawley rats; details: for Conc HZ-166 in plasma, individual subjects: 35.5 mg/kg
Method: Immediately after testing, blood was collected via cardiac puncture. Samples were spun down, plasma was collected and acetonitrile added. Samples were frozen at −80° C. and shipped to a commercial laboratory (Enthalpy) for analysis.
Group 3 (8 subjects) was dosed with vehicle only.

[2] = system: Metrazol-induced clonic seizures; test: Tolerance study, 5 day dosing, scMet; assay type: in vivo, Sprague Dawley rats
Method: The dose utilized was the predetermined ED50 against the scMet seizure model. In this model a subcutaneous injection of the convulsant Metrazol is used to produce highly reproducible clonic seizures in laboratory animals. […] Animals are pretreated with various doses of the test compound. At the time of peak effect (TPE) of the test compound, a dose of Metrazol that induce convulsions in 97% of animals (CD97: 85 mg/kg mice) is injected into a loose fold of skin in the midline of the neck. The animals are placed in isolation cages to minimize stress (Swinyard et al., 1961) and observed for the next 30 minutes for the presence or absence of a seizure. An episode of clonic spasms, approximately 3-5 seconds, of the fore and/or hindlimbs, jaws, or vibrissae is taken as the endpoint.
In this study, Sprague Dawley rats were used (average weight 150 gm). […] Finally, Group 3 was the solvent control group. These animals were administered the test solvent (methylcellulose 0.5%) as a control. Here methylcellulose was administered i.p. for all 5 days.
On day 5, all animals from each group were tested in the scMet model using the previously determined time of peak effect (TPE) of 15 minutes. Immediately after testing, blood was collected via cardiac puncture. Samples were spun down, plasma was collected and acetonitrile added. Samples were frozen at −80° C. and shipped to a commercial laboratory (Enthalpy) for analysis.

[3] = target: T1, GABAA/α2 (α2β3γ2 GABAA receptors) (Homo sapiens, UniProt P18507+P47869); test: Competitive binding assay, [3H]flunitrazepam; details: Binding Affinity at GABAA/α2, αxβ3γ2, [3H]flunitrazepam competition
T1 construct: expressed in transfected cells
Outline: (§1)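 Bound ligand was collected on 0.3% polyethyleneimine-pretreated GF/C filters with three ice-cold washes and quantified by liquid scintillation counting; membrane protein was determined against a BSA standard.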

[4] = target: T2, GABAA/α5 (α5β3γ2 GABAA receptors) (Homo sapiens, UniProt P18507+P31644); test: Competitive binding assay, [3H]flunitrazepam; details: Binding Affinity at GABAA/α5, αxβ3γ2, [3H]flunitrazepam competition
T2 construct: expressed in transfected cells
Outline: as §1

[5] = system: Pilocarpine-induced Status; test: Pilocarpine-induced status; assay type: in vivo, rats; details: for Pilocarpine-induced Status, Time to Peak Effect, ratio of animals: Time 0 Hrs

C#Cc1ccc2c(c1)C(c1ccccn1)=NCc1c(C(=O)OCC)ncn1-2 [Hz166 (106), 8-Acetylenyl-6-pyridin-2-yl-4H-benzo[f]imidazo[1,5-a][1,4]diazepine-3-carboxylic acid ethyl ester]
HZ-166, plasma average with outliers excluded ([1]; Group 1 (five days dosing)): 0.334 nmol/mL
Conc HZ-166 in plasma, individual subjects ([1]; Group 1: HZ-166 35.5 mg/kg ip for five days, blood after test on day 5): 94.3 ng/mL and 85.4 ng/mL and 168 ng/mL and 138 ng/mL and BLQ < (1.00) ng/mL and 118 ng/mL and 198 ng/mL and 30.5 ng/mL
HZ-166, plasma average with outliers excluded ([1]; Group 2 (day 5 only)): 0.533 nmol/mL
Conc HZ-166 in plasma, individual subjects ([1]; Group 2: HZ-166 35.5 mg/kg ip on day 5 only): 202 ng/mL and 165 ng/mL and 8.67 ng/mL and 273 ng/mL and 210 ng/mL and 93.3 ng/mL and 176 ng/mL
protection against scMet induced seizures ([2]; Group 1 chronic dosing, day 5): approximately 40%
scMet, animals protected/tested ([2]; Group 1 chronic dosing: 35.5 mg/kg ip once daily 5 days, tested day 5 at TPE 15 min, 35.5 mg/kg): 3/8 and 3/8 protected (chronic dosing)
scMet, animals protected/tested ([2]; Group 2 acute dosing: single 35.5 mg/kg ip dose on day 5, TPE 15 min, 35.5 mg/kg): 1/8 and 1/8 (acute dosing)
scMet, animals protected/tested ([2]; original preliminary study (different rats), acutely treated group): 5/8
scMet, animals protected/tested ([2]; original preliminary study (different rats), chronically treated group): 5/8
tolerance to the anticonvulsant effects ([2]; rats, dosed 5 days at the calculated scMet ED50): didn't develop tolerance; also recorded: did not develop tolerance

C#Cc1ccc2c(c1)C(c1ccccc1F)=NCc1c(C(=O)OCC)ncn1-2 [JY-XHe-053 (15), Ethyl-8-acetyleno-6-(2′-fluorophenyl)-4H-benzo[f]imidazo[1,5-a][1,4]diazepine-3-carboxylate]
Ki [3]: 12.3 nM
Ki [4]: 0.671 nM

C#Cc1ccc2c(c1)C(c1ccccc1)=N[C@H](C)c1nnc(C)n1-2 [SH-TR-CH3 (146), (4R)-8-Ethynyl-1,4-dimethyl-6-phenyl-4H-benzo[f][1,2,4]triazolo[4,3-a][1,4]diazepine]
Pilocarpine-induced Status, Time to Peak Effect, ratio of animals ([5]; Rats, 100 mg/kg, 0.25 Hr): 0/2
Pilocarpine-induced Status, Time to Peak Effect, ratio of animals ([5]; Rats, 100 mg/kg, 0.5 Hr): 0/2
Pilocarpine-induced Status, Time to Peak Effect, ratio of animals ([5]; Rats, 100 mg/kg, 1.0 Hr): 0/2
Pilocarpine-induced Status, Time to Peak Effect, ratio of animals ([5]; Rats, 100 mg/kg, 2.0 Hr): 0/2
Pilocarpine-induced Status, Time to Peak Effect, ratio of animals ([5]; Rats, 100 mg/kg, 4.0 Hr): 0/2
Pilocarpine-induced Status, Time to Peak Effect, ratio of animals ([5]; Rats, 300 mg/kg, 0.25 Hr): 0/2
Pilocarpine-induced Status, Time to Peak Effect, ratio of animals ([5]; Rats, 300 mg/kg, 0.5 Hr): 0/2
Pilocarpine-induced Status, Time to Peak Effect, ratio of animals ([5]; Rats, 300 mg/kg, 1.0 Hr): 0/2
Pilocarpine-induced Status, Time to Peak Effect, ratio of animals ([5]; Rats, 300 mg/kg, 2.0 Hr): 0/2
Pilocarpine-induced Status, Time to Peak Effect, ratio of animals ([5]; Rats, 300 mg/kg, 4.0 Hr): 0/2
Pilocarpine-induced Status, Time to Peak Effect, ratio of animals ([5]; Rats, 500 mg/kg, 0.25 Hr, Ataxia noted): 0/2^12
Pilocarpine-induced Status, Time to Peak Effect, ratio of animals ([5]; Rats, 500 mg/kg, 0.5 Hr, Ataxia noted): 0/2^12
Pilocarpine-induced Status, Time to Peak Effect, ratio of animals ([5]; Rats, 500 mg/kg, 1.0 Hr, Ataxia noted): 0/2^12
Pilocarpine-induced Status, Time to Peak Effect, ratio of animals ([5]; Rats, 500 mg/kg, 2.0 Hr, Ataxia noted): 0/2^12
Pilocarpine-induced Status, Time to Peak Effect, ratio of animals ([5]; Rats, 500 mg/kg, 4.0 Hr): 0/2
Pilocarpine-induced Status, ratio of animals ([5]; Rats, 600 mg/kg, 0 Hrs post first Stage III seizure): 4/7
Pilocarpine-induced Status, ratio of animals ([5]; Rats, 1,000 mg/kg, 0.5 Hrs post first Stage III seizure, footnote c: death): 1/7^c
Ki [3]: 1530 nM
Ki [4]: 1950 nM
